Source: publication PMC9000427, “Synthesis and Anti-Trypanosoma cruzi Biological Evaluation of Novel 2-Nitropyrrole Derivatives” (Molecules, 2022)
“And” between values parts separate entries of the source, which are not always exact repeats. Equal entries are not always repeated. Where two headings read alike, the source gives them in different places.

Tests used:
in vitro = assay type: cell-based; settings: Chinese hamster, CC50 CHO
Procedure: (§1) These new derivatives were evaluated in vitro against the intracellular T. cruzi strain X10/7-Silvio by determining their 50% efficacy concentration (EC50) and were compared to the reference anti-T. cruzi drug nifurtimox. The in vitro 50% cytotoxic concentrations (CC50) were assessed on the CHO cell line and compared to a cytotoxic reference drug, doxorubicin. In vitro cytotoxicity against vero host cells was also assessed (vero cells EC50).
The toxicity of compounds towards Chinese hamster ovary cells (CHO-K1, ATCC CCL61) was evaluated by the NRU toxicity test, based on the concentration-dependent reduction of the uptake of the vital dye neutral red when measured 24 h after chemical treatment. Cells were grown in McCoy’s medium supplemented with Penicillin 100 IU/mL and streptomycin 100 μg/mL, and 10% of inactivated calf serum, and incubated at 37 °C in CO2 5% atmosphere. They were seeded into two 96-well tissue culture plates (0.1 mL per well), at a concentration of 1 × 10^5 cells/mL, and incubated at 37 °C (5% CO2) for 24 h, until confluent. The culture medium was decanted and replaced by 100 µL of fresh medium containing the appropriate concentrations of the compounds (eight different concentrations in triplicate), then cells were incubated at 37 °C (5% CO2) in the dark for 24 h. At the end of the incubation period, cells were washed, placed into neutral red medium (50 μg/mL neutral red in complete medium). This vital dye is a weak cationic dye that penetrates membranes of living cells by […] and accumulates intracellularly in lysosomes. On the contrary, alterations of the cell surface or metabolism result in a decreased uptake and binding of NR in non-viable cells. Cells were incubated for 3 h at 37°C, 5% CO2, and then the culture medium was removed, and cells were washed three times with 0.2 mL of PBS to remove excessive dye. Destaining solution (50% ethanol, 1% acetic acid, 49% distilled water; 50µL per well) was added into the wells, and the plates were shaken for 15–20 min at room temperature in the dark. The degree of cell viability was measured by a fluorescence–luminescence reader. The optical density (OD) of each well was read at 540 nm. The results obtained for wells treated with the test compounds were compared to those of untreated control wells (100% viability) and converted to percentage values. The mean OD value of blank wells (containing only neutral red desorbed solution) was subtracted from the mean OD value of three treated wells (dilutions of the test material, positive control or HBSS). The percentages of cell viability were calculated as:Viability (%) = (Mean OD of test wells-mean OD of blanks) × 100 / (Mean OD of negative control − mean OD of blanks)
The concentration of the test substances causing a 50% release of neutral red as compared to the control culture was calculated by non-linear regression analysis using software Phototox Version 2.0.

[1] = test system: T. cruzi X10/7 intracellular amastigotes; experiment: T. cruzi intracellular assay (infected Vero cells, high-content imaging); assay type: cell-based, Trypanosoma cruzi
Procedure: The infected Vero cells were then plated into 384-well plates containing the compounds to be tested, at 4000 cells per well in MEM media with 1% FCS. […] The plates were imaged on a Perkin Elmer Operetta high-content imaging system using a 20× objective. Images were analysed using the Columbus system (Perkin Elmer).

Vero host cells = experiment: Cytotoxicity against Vero host cells in the T. cruzi intracellular assay; assay type: cell-based; settings: Chlorocebus sabaeus
Procedure: as §1
Vero cells (ECCAC 84113001) were screened for mycoplasma infection and maintained in MEM medium supplemented with Glutamax (Life Technologies) and 10% (v/v) foetal calf serum (FCS) at 37 °C in the presence of 5% CO2. T. cruzi parasites (Silvio X10/7 A1), a clonal line kindly provided by Susan Wyllie and Prof. Alan Fairlamb were maintained in Vero cells. On a weekly basis, emerged trypomastigotes were used to infect a new Vero monolayer at the multiplicity of infection (MOI) 1.5 [32].
For the primary intracellular assay, the infection conditions were chosen so that no trypomastigote egress occurs during the compound incubation time. First, Vero cells were infected overnight with tissue culture-derived T. cruzi trypomastigotes in T225 tissue culture flasks (MOI 5).
Next, any remaining free trypomastigotes were washed away with serum-free MEM, and the infected Vero cells were harvested by trypsinisation. The infected Vero cells were then plated into 384-well plates containing the compounds to be tested, at 4000 cells per well in MEM media with 1% FCS. After 96h incubation at 37 °C in the presence of 5% CO2, the plates were fixed with 4% formaldehyde for 20 min at room temperature and stained with 5μg/mL Hoechst 33342. The plates were imaged on a Perkin Elmer Operetta high-content imaging system using a 20× objective. Images were analysed using the Columbus system (Perkin Elmer). The algorithm for the primary assay first identified the Vero nuclei followed by the demarcation of the cytoplasm and identification of intracellular amastigotes. This algorithm reported the mean number of parasites per Vero cell and the total number of Vero cells. The data analysis was as previously described.

[2] = Trypanosoma cruzi, Vero, 96 h, intracellular T. cruzi strain X10/7-Silvio, 96h incubation, mean ± SD of two independent biological replicates, read-out: EC50 T. cruzi
[3] = Vero host cells, 96h incubation, concentrations up to 50 µM, read-out: Vero cells EC50
[4] = intracellular T. cruzi strain X10/7-Silvio, 96h incubation, mean ± SD of two independent biological replicates, read-out: EC50 T. cruzi
[5] = Trypanosoma cruzi, Vero, Replicate 1, dose response curve, read-out: pXC50 intracellular amastigotes (converted)
[6] = Trypanosoma cruzi, Vero, Replicate 2, dose response curve, read-out: pXC50 intracellular amastigotes (converted)
[7] = Replicate 1, inhibition of Vero host cell growth, read-out: C_pXC50 host cells

SMILES | CC50 at 24 h (in vitro) [µM] | EC50 [1, 2] [µM] | EC50 (Vero host cells; [3]) [µM] | melting point [°C] | other results
COc1cccc2c1C(=O)c1c(O)c3c(c(O)c1C2=O)C[C@@](O)(C(=O)CO)C[C@@H]3O[C@H]1C[C@H](N)[C@H](O)[C@H](C)O1 [Doxorubicin, reference compound] | 4.6 ± 0.08 | – | – | – | –
O=C(Cn1cccc1[N+](=O)[O-])NCc1ccccc1 [Compound 3, N-Benzyl-2-(2-nitro-1H-pyrrol-1-yl)acetamide] | 24.3 | 34.5 ± 21.9 | 42 ± 11.3 | 174 to 175 | –
COc1cccc(NC(=O)Cn2cccc2[N+](=O)[O-])c1 [Compound 19, N-(3-Methoxyphenyl)-2-(2-nitro-1H-pyrrol-1-yl)acetamide] | 260 ± 6.3 | 50 | > 50 | – | –
CC(C)NC(=O)Cn1cccc1[N+](=O)[O-] [Compound 20, N-Isopropyl-2-(2-nitro-1H-pyrrol-1-yl)acetamide] | 321 ± 5.3 | – | – | 190 to 191 | –
O=C(Cn1cccc1[N+](=O)[O-])Nc1ccccc1 [Compound 4, 2-(2-Nitro-1H-pyrrol-1-yl)-N-phenylacetamide] | 262 ± 3.9 | < 10 | 14 | 201 to 202 | EC50 [1, 4]: 6 µM
O=C(Cn1cccc1[N+](=O)[O-])Nc1ccccc1Cl [Compound 17, N-(2-Chlorophenyl)-2-(2-nitro-1H-pyrrol-1-yl)acetamide] | 198 ± 5.7 | 50 | > 50 | – | –
O=C(Cn1cccc1[N+](=O)[O-])NCc1cccc(C(F)(F)F)c1 [Compound 15, 2-(2-Nitro-1H-pyrrol-1-yl)-N-[3-(trifluoromethyl)benzyl]acetamide] | 185 ± 5.1 | 41 ± 12.7 | 43 ± 9.9 | 161 to 162 | –
CC1CS(=O)(=O)CCN1/N=C/c1ccc([N+](=O)[O-])o1 (centres unmarked) [Nifurtimox, reference compound] | – | 2.1 ± 0.2 | – | – | EC50 [1, 5]: 2.04 µM; EC50 [1, 6]: 2.04 µM; EC50 (Vero host cells; [7]): > 15.8 µM
O=C(Cn1cccc1[N+](=O)[O-])Nc1cc(F)ccc1Br [Compound 22, N-(2-Bromo-5-fluorophenyl)-2-(2-nitro-1H-pyrrol-1-yl)acetamide] | 188 ± 4.4 | – | – | 185 to 186 | –
O=C(Cn1cccc1[N+](=O)[O-])Nc1ccc(Br)cc1 [Compound 16, N-(4-Bromophenyl)-2-(2-nitro-1H-pyrrol-1-yl)acetamide] | 173 ± 4.6 | < 10 | 14.5 ± 0.7 | – | EC50 [1, 4]: 6.5 ± 0.6 µM
O=C(Cn1cccc1[N+](=O)[O-])Nc1cccc(C(F)(F)F)c1 [Compound 18, 2-(2-Nitro-1H-pyrrol-1-yl)-N-[3-(trifluoromethyl)phenyl]acetamide] | 156 ± 2.9 | – | > 50 | – | maximum effect (percent inhibition of intracellular amastigotes) ([1]; 96h treatment, two independent replicates, normalised to DMSO (0%) and nifurtimox controls (100%)): 71%; Emax ([1]; Trypanosoma cruzi, Vero, 96 h, 96h treatment, two independent replicates, normalised to DMSO (0%) and nifurtimox controls (100%), read-out: maximum effect (percent inhibition of intracellular amastigotes)): 79%; EC50 [1, 5]: 2.29 µM; EC50 [1, 6]: 4.9 µM; EC50 [1, 4]: < 10 µM and 3.6 µM; EC50 (Vero host cells; [7]): > 50.1 µM
O=C(Cn1cccc1[N+](=O)[O-])NC1CCCC1 [Compound 21, N-Cyclopentyl-2-(2-nitro-1H-pyrrol-1-yl)acetamide] | 303 ± 6.1 | – | – | – | –
